Among the data in patent publication US9388140B2, “Substituted benzimidazoles” (priority 2011, dated 2016) are IC50 values, retold here.

The target of this experiment is human kinase Mps-1 (Homo sapiens (Human), UniProt P33981). In words: Mps-1 kinase assay (TR-FRET). The experiment is classed as biochemical. The conditions noted are these: N-terminally GST-tagged human full length recombinant Mps-1; 10 μM ATP; 1 μM biotinylated peptide substrate; read-out: Mps1 IC50. The gist of the method: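 GST-Mps-1 (full length, N-term tag) ~1 nM final, linear-range adjusted per lot; biotinylated peptide substrate. Detection: Eu-anti-pSer/Thr donor → SA-XLent acceptor TR-FRET, 1 h, 22° C. Inhibition of kinase activity.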
human kinase Mps-1, sequence (P33981 whole entry): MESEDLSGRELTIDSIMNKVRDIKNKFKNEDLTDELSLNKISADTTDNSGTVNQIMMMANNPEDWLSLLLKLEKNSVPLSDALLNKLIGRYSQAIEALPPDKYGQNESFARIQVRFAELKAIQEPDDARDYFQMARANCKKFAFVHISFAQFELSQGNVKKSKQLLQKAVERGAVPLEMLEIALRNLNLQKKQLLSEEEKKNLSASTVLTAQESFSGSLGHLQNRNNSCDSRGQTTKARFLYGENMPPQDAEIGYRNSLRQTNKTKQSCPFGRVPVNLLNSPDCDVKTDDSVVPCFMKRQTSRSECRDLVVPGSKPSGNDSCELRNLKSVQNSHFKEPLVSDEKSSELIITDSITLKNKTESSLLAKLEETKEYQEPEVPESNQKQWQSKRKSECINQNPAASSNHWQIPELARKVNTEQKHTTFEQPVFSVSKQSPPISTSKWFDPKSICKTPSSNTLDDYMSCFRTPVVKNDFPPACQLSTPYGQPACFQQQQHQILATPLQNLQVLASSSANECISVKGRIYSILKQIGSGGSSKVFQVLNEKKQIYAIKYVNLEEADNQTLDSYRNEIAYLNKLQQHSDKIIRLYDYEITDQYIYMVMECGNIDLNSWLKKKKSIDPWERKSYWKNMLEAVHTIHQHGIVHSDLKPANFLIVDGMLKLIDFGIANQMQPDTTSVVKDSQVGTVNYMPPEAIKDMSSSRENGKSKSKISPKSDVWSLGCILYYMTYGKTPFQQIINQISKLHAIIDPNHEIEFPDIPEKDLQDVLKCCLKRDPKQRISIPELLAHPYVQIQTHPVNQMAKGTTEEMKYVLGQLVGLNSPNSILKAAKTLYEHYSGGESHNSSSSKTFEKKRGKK
For `Cc1cc(-n2cnc3c(NCCC(F)(F)F)cc(Oc4ccc(F)c(C(F)(F)F)c4)cc32)ccc1C(=O)NC1CC1` [Example 76, N-cyclopropyl-4-{6-[4-fluoro-3-(trifluoromethyl)phenoxy]-4-[(3,3,3-trifluoropropyl)amino]-1H-benzimidazol-1-yl}-2-methylbenzamide], the IC50 was found to be 7.2 nM. The value for `CNC(=O)c1ccc(-c2cc(NCCC(F)(F)F)c3ncn(-c4ccc(C(=O)NC5CC5)c(C)c4)c3c2)cc1C` [Example 52, 4-{1-[4-(Cyclopropylcarbamoyl)-3-methylphenyl]-4-[(3,3,3-trifluoropropyl)amino]-1H-benzimidazol-6-yl}-N,2-dimethylbenzamide] was 0.9 nM.

Consider `CCNC(=O)c1ccc(-n2cnc3c(NCC4CCOCC4)cc(Oc4cccc(F)c4F)cc32)cc1C` [Example 85, 4-{6-(2,3-Difluorophenoxy)-4-[(tetrahydro-2H-pyran-4-ylmethyl)amino]-1H-benzimidazol-1-yl}-N-ethyl-2-methylbenzamide], for which the IC50 came to 3.3 nM.
